Source: BigSolDB 2.1

CNC[C@H](O)c1cccc(O)c1.Cl
solubility (mole fraction)
Conditions	in 2-butoxyethanol	in 2-ethoxyethanol	in 2-methoxyethanol	in 2-propoxyethanol	in DMF	in NMP	in ethanol	in isopropanol	in methanol	in n-propanol
278.15 K	0.00496	0.0254	0.114	0.00782	0.185	0.154	0.0138	0.00201	0.0715	0.00469
283.15 K	0.00611	0.0305	0.122	0.01	0.198	0.161	0.0168	0.00251	0.0811	0.00586
288.15 K	0.00811	0.0386	0.131	0.0132	0.21	0.169	0.0195	0.00335	0.09	0.00728
293.15 K	0.0102	0.0465	0.14	0.0162	0.222	0.178	0.0233	0.00409	0.101	0.00905
298.15 K	0.0126	0.0553	0.147	0.0195	0.236	0.186	0.0287	0.00492	0.111	0.0107
303.15 K	0.016	0.0654	0.161	0.0244	0.251	0.198	0.034	0.0062	0.123	0.0133
308.15 K	0.0195	0.0761	0.171	0.0304	0.265	0.208	0.0404	0.00768	0.136	0.0163
313.15 K	0.0248	0.0903	0.183	0.0376	0.284	0.22	0.047	0.00931	0.15	0.0196
318.15 K	0.0306	0.106	0.195	0.0462	0.299	0.232	0.0554	0.0113	0.165	0.0236
323.15 K	0.0372	0.122	0.21	0.0566	0.315	0.246	0.0654	0.0138	0.182	0.0282
